{"source": "paper PMC9093745", "about": "“Carbohydrate Metabolism in Bacteria: Alternative Specificities in ADP-Glucose Pyrophosphorylases Open Novel Metabolic Scenarios and Biotechnological Tools” (Frontiers in Microbiology, 2022)", "type_in_all_cases": "biochemical", "key": {"[1]": {"molecular_target": "T1, R. fascians ADP-Glc PPase (Rhodococcoides fascians, UniProt A0A143QED7)", "T1 construct": "gene glgC; recombinant in E. coli BL21 (DE3), His-tagged, IMAC purified; actinobacterial enzyme is a GlgC tetramer", "T1 sequence (A0A143QED7 1-404)": "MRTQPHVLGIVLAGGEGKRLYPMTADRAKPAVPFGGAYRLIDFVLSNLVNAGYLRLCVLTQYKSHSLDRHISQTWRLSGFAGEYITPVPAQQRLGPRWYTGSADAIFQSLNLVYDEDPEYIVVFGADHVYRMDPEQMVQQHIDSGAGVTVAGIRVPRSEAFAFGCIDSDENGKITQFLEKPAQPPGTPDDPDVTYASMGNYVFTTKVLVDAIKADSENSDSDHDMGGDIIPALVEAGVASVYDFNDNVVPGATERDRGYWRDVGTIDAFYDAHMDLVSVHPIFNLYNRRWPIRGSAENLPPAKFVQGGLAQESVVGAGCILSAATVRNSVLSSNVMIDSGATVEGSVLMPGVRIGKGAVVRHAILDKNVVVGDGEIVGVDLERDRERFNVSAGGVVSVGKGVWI", "experiment": "activation of ADP-Glc synthesis, malachite green Pi release", "details": "allosteric activator; Glc-1P and ATP as substrates, Mg2+, pH 8.0, 37°C"}, "[2]": {"molecular_target": "T2, A. tumefaciens ADP-Glc PPase (Agrobacterium tumefaciens, UniProt P39669)", "T2 construct": "gene glgC; recombinant in E. coli; proteobacterial enzyme is a GlgC homotetramer", "T2 sequence (P39669 1-420)": "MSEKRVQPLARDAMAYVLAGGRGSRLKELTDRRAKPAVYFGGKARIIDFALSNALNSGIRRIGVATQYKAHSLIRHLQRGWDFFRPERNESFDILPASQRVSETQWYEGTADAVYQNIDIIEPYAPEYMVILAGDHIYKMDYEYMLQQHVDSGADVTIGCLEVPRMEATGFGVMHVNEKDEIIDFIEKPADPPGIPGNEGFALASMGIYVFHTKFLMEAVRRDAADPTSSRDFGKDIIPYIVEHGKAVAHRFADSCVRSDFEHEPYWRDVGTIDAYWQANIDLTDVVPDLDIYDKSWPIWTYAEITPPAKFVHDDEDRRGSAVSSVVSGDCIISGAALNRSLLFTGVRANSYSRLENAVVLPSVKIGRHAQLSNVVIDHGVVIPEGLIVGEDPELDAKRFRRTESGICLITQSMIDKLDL", "experiment": "saturation curve, malachite green Pi release coupled to pyrophosphatase", "details": "ATP co-substrate, Mg2+, pH 8.0, 37°C"}, "[3]": {"molecular_target": "T3, S. coelicolor ADP-Glc PPase (Streptomyces coelicolor, UniProt P72394)", "T3 construct": "gene glgC; recombinant in E. coli BL21 (DE3), His-tagged, IMAC purified; actinobacterial enzyme is a GlgC tetramer", "T3 sequence (P72394 1-399)": "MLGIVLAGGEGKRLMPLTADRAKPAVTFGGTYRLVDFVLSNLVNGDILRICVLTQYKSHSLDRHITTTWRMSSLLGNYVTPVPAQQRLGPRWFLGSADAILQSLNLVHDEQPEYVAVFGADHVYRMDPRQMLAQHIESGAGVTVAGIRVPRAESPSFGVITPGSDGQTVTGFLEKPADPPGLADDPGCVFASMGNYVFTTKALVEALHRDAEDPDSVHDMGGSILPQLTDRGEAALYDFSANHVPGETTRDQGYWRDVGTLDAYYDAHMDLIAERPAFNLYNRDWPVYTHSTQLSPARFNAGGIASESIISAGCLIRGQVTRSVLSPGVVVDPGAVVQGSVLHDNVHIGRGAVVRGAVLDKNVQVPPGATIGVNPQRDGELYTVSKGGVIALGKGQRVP", "experiment": "activation curve, malachite green Pi release coupled to pyrophosphatase", "details": "allosteric activator (4-fold); Glc-1P and ATP as substrates, Mg2+, pH 8.0, 37°C; read-out: A0.5"}, "[4]": {"molecular_target": "T4, K. rhizophila ADP-Glc PPase (Kocuria rhizophila, UniProt B2GHR6)", "T4 construct": "gene glgC; recombinant in E. coli BL21 (DE3), His-tagged, IMAC purified; actinobacterial enzyme is a GlgC tetramer", "T4 sequence (B2GHR6 1-414)": "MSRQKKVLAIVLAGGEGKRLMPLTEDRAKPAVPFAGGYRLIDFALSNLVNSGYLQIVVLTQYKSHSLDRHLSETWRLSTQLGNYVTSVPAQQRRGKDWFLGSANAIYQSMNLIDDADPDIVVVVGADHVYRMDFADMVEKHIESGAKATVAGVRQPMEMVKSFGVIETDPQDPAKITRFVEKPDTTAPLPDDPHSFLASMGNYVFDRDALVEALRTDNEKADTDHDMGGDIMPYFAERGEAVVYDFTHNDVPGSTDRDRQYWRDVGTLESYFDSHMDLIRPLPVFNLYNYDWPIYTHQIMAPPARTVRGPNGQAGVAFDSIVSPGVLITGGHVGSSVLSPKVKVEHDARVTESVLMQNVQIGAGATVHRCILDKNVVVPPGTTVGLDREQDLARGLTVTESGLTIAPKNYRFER", "experiment": "activation curve, malachite green Pi release coupled to pyrophosphatase", "details": "allosteric activator (Vmax 4-fold); Glc-1P and ATP as substrates, Mg2+, pH 8.0, 37°C; read-out: A0.5"}, "[5]": {"molecular_target": "T2, A. tumefaciens ADP-Glc PPase", "experiment": "effect on ADP-Glc synthesis, malachite green Pi release", "details": "allosteric effector, lowers activity; Glc-1P and ATP as substrates, Mg2+, pH 8.0, 37°C"}, "[6]": {"molecular_target": "T5, R. albus ADP-Glc PPase GlgC/GlgD (Hominimerdicola alba, UniProt E9SED8)", "T5 construct": "recombinant in E. coli, IMAC purified; heterotetramer; with Glucose-1-phosphate adenylyltransferase, GlgD subunit", "T5 sequence (E9SED8 1-400)": "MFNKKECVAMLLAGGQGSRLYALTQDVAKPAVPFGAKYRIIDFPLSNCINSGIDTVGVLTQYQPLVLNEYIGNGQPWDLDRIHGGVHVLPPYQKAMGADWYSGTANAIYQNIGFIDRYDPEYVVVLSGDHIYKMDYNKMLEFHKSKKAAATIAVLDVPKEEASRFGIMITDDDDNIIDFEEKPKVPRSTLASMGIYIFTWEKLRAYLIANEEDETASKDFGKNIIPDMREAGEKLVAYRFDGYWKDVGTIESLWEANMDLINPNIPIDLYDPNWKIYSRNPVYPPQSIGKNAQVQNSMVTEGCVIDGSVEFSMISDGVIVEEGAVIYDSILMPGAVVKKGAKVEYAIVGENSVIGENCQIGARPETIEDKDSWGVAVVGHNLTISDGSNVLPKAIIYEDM", "T5 sequence (E9SED9 1-371 partner)": "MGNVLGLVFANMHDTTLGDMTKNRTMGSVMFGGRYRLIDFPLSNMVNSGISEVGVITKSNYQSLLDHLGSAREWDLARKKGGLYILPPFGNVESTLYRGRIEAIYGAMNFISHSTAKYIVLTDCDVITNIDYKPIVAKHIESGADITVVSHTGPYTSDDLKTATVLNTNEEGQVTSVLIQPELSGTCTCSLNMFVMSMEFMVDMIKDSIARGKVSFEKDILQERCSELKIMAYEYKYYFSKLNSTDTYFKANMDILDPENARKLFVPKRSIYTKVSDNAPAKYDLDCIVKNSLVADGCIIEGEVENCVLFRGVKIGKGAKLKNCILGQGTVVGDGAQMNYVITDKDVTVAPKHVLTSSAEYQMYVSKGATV", "experiment": "activation of ADP-Glc synthesis, malachite green Pi release", "details": "allosteric activator; Glc-1P and ATP as substrates, Mg2+, pH 8.0, 37°C"}, "[7]": {"molecular_target": "T6, R. albus ADP-Glc PPase GlgC (Hominimerdicola alba, UniProt E9SED8)", "T6 construct": "recombinant in E. coli, IMAC purified; homotetramer", "T6 sequence (E9SED8 1-400)": "T5 sequence (E9SED8 1-400)", "experiment": "activation of ADP-Glc synthesis, malachite green Pi release", "details": "allosteric activator; Glc-1P and ATP as substrates, Mg2+, pH 8.0, 37°C"}}, "data": [{"smiles": "O=P(O)(O)OC[C@H]1OC(O)[C@H](O)[C@@H](O)[C@@H]1O", "note": "(some centres unmarked) [Glc-6P]", "values": [{"measurement": "fold activation", "setting": "[1]", "result": "~ 8 fold"}]}, {"smiles": "N[C@H]1[C@@H](OP(=O)(O)O)O[C@H](CO)[C@@H](O)[C@@H]1O", "note": "[GlcN-1P]", "values": [{"measurement": "Km", "setting": "[2]", "result": "The enzyme was active with GlcN-1P as a substrate"}]}, {"smiles": "N[C@H]1C(O)O[C@H](COP(=O)(O)O)[C@@H](O)[C@@H]1O", "note": "(some centres unmarked) [GlcN-6P]", "values": [{"measurement": "EC50", "setting": "[3]", "result": "3550 ± 520", "unit": "µM"}, {"measurement": "EC50", "setting": "[4]", "result": 80, "unit": "µM"}, {"measurement": "% decrease of activity", "setting": "[5]", "result": "~ 30%"}, {"measurement": "activation of ADP-Glc synthesis, malachite green Pi release", "setting": "[6]", "result": "both R. albus GlgC and GlgC/GlgD responded to GlcN-6P activation"}, {"measurement": "fold activation", "setting": "[1]", "result": "~ 8 fold"}, {"measurement": "activation of ADP-Glc synthesis, malachite green Pi release", "setting": "[7]", "result": "both R. albus GlgC and GlgC/GlgD responded to GlcN-6P activation"}]}]}
